According to patent US20160015064A1, “COMPOUNDS, COMPOSITIONS, AND METHODS FOR MODULATING SWEET TASTE” (CHROMOCELL CORPORATION, priority 2013, published 2016):

How the values were obtained:
[1] = system: perception of sweet taste, in an aqueous solution; test: Inherent sweetness assessment, difference from control sip and spit method; format: in vivo, humans; settings: no sweetener
Experimental: The aqueous sucrose solutions were prepared by adding, sucrose (by weight), to water to achieve the desired concentration.
Compounds were first prepared as a 500-fold concentrated stock solution in 100% ethanol. These concentrated stocks were then added to water to result in a final ethanol concentration of 0.2%. The control (including positive control) samples were also normalized to 0.2% ethanol. This level of ethanol was not seen to contribute any perceived sweetness.
The intrinsic effect of test compounds on the perception of sweet taste, in an aqueous solution, in humans was evaluated using a difference from control “sip and spit” method employing a verbal category scale.
In this method, panelists (n=12) evaluate one pair of samples at a time—one sample contains water plus compound (i.e. test) while the other contains water without compound (i.e. control). Panelists were instructed to first taste the un-blinded control followed by the test sample and asked to rate the size of sweetness difference between the test and control sample, using a 6 point verbal category scale:
Verbal category scale • No difference • Slight difference • Slight/moderate difference • Moderate difference • Moderate/large difference • Very large difference
4 blinded controls comprising of one negative control (0% sucrose) and 3 positive control samples (0.5% sucrose, 1% sucrose and 2% sucrose) were also included as part of the test to evaluate the ability of panelists to rank the difference in sweetness perception between 0.5% sucrose, 1% sucrose and 2% sucrose compared to 0% sucrose control.
Panelists were instructed not to eat or drink (except water) for at least 1 h before the test. During the test, panelists were instructed to sip each sample, swirl it around their mouth and then expectorate. Panelists cleansed their palates by rinsing with water, eating a cracker and waiting for an interval of about 5 minutes. All samples were tasted at ambient temperatures.
The verbal category response for each test sample was converted into an integer numerical value, from 1 to 6 (e.g. no difference=1 and very large difference=6). Total numbers of panelist responses per integer value were plotted as a histogram. An assessment was then made, comparing mean, mode of the numerical value, and the distribution of the histogram plots, for test samples as compared to that of the positive (0.5% sucrose, 1% sucrose and 2% sucrose) and negative control (0% sucrose) sample. Inherent sweetness levels are then correlated to the positive controls as discrete bins: • Bin 1: 0% sucrose • Bin 2: >0% sucrose—<0.5% sucrose • Bin 3: 0.5% sucrose • Bin 4: >0.5% sucrose—<1% sucrose • Bin 5: 1% sucrose • Bin 6: >1% sucrose—<2% sucrose • Bin 7: 2% sucrose

[2] = system: perception of the sweet taste in an aqueous environment; test: Trained descriptive analysis (DA) panel, sweet attribute; format: in vivo, humans; settings: for DA Panel Average Sweetness Intensity Score (on 15 cm scale) / Fold enhancement of sweetness perception as compared to control sweetener solution / Perceived inherent sweetness compared to solubilizing agent alone / Perceived sweetness compared to solubilizing agent alone (inherent sweetness): 35 ppm compound plus solubilizing agent; for Perceived inherent sweetness compared to solubilizing agent alone: citric acid-citrate solution pH 3; for Compound effects beyond the additive effect of inherent sweetness: 4% fructose and 8% sucrose; for Compound effects beyond the additive effect of inherent sweetness / Perceived sweetness vs control sweetener solutions (FIG. 2) / Perceived sweetness vs control sweetener solutions (FIG. 1): 35 ppm; for Perceived sweetness vs control sweetener solutions (FIG. 2) / Perceived sweetness vs control sweetener solutions (FIG. 1): fructose and sucrose, ** p<0.01; for Perceived sweetness compared to solubilizing agent alone (inherent sweetness): water pH 7
Experimental: The effect of the test compounds on the perception of the sweet taste in an aqueous environment, in the absence or presence of carbohydrate sweeteners, was evaluated using a descriptive analysis methodology with a group of trained panelists, as follows.
Candidate panelists were recruited, with prescreening and personal interviews, and were assessed for their ability to detect, recognize and differentiate basic taste attributes or mixtures thereof as part of a standardized acuity test. These candidate panelists were also assessed for their innate ability to identify flavors, and to rank on intensity scales. Other senses such as smell and vision were also included as part of the assessment. Candidates also were screened for their ability to use the language to describe and articulate ideas.
Selected candidates proceeded to training as a group in three phases: (1) Lexicon development, (2) Concept alignment, and (3) Scaling descriptors. During lexicon development, panelists evaluated products appropriate for use in the study to generate and align on terms describing the flavor, taste, aromatic, trigeminal, and temporal attributes. During concept alignment, the panel evaluated the products mentioned above to clarify and confirm the attributes that were generated during lexicon development using reference standards that appropriately define each attribute; these are either physical references (e.g. sucrose solutions) or verbal descriptions (e.g. overall flavor). Product terms and concepts were validated during this portion of the study.
In the last phase, scaling descriptors, the panel participated in a series of exercises focused on ordering and ranking samples according to relative attribute intensity, measuring attribute intensity using a defined length of line scale. Whenever possible, different levels or concentration of references were used as anchors to facilitate use of the scale. Panelists were provided with blinded references at this stage to evaluate their understanding and perception of the scale.
The panel used in this example was trained to reference sweet attributes in an absolute manner, such that a particular concentration of sweetener is always measured by the panelists at the same point using a 15 cm line scale where each cm represents a 1% increase in sucrose to cover the range of 0% to 15% sucrose. For the rest of the attributes, the panel was trained using a hybrid approach between descriptive analysis methods (e.g. quantitative descriptive analysis, the sensory spectrum, etc.) well-known to those skilled in the art.
The trained panel was then used for a descriptive analysis assessment for Compounds 1, 2 and 3 in aqueous solutions at pH 3 and pH 7. Each of the three compounds was tested at 35 ppm in sucrose and fructose sweeteners. In addition, Compounds 1, 2 and 3 were also examined in water at pH 3 and pH 7 to assess for any inherent sweetness.
The aqueous sweetener solutions were prepared by adding, fructose or sucrose (by weight), to water to achieve the desired concentration. Aqueous sucrose solutions at pH 3 were buffered using a final concentration of 0.096% Citric Acid plus 0.036% Sodium Citrate while aqueous fructose solutions at pH 3 were buffered using a final concentration of 0.06% Citric Acid and 0.0225% Sodium Citrate.
Compounds were first prepared as a […] concentrated stock solution in 100% ethanol. These concentrated stocks were then added to the aqueous sweetener solutions to result in a final ethanol concentration of 0.2%. In addition to compounds, a solubilizing agent at a final concentration of 0.02% was added to the aqueous sweetener solutions. Control samples were also balanced with 0.2% ethanol and in certain cases 0.02% solubilizing agent.
Both control (aqueous sweetener solutions without compound) and variant (aqueous sweetener solutions with compound) samples were blinded and randomized (by sweetener and pH blocks). […]

[3] = citric acid-citrate solution pH 3, no sweetener
[4] = water pH 7, no sweetener, 1 cm = 1% sucrose

| Structure (SMILES) | Correlated Inherent Sweetness Assessment ([1]; compound 10 ppm in water) | Correlated Inherent Sweetness Assessment ([1]; compound 15 ppm in water) [% sucrose] | DA Panel Average Sweetness Intensity Score (on 15 cm scale) ([2]; 4% fructose, pH 3) | Fold enhancement of sweetness perception as compared to control sweetener solution ([2]; 4% fructose, pH 3) [X] | DA Panel Average Sweetness Intensity Score (on 15 cm scale) ([2]; 4% fructose, pH 7) | Fold enhancement of sweetness perception as compared to control sweetener solution ([2]; 4% fructose, pH 7) [X] | DA Panel Average Sweetness Intensity Score (on 15 cm scale) ([2]; 8% sucrose, pH 3) | Fold enhancement of sweetness perception as compared to control sweetener solution ([2]; 8% sucrose, pH 3) [X] | DA Panel Average Sweetness Intensity Score (on 15 cm scale) ([2]; 8% sucrose, pH 7) | Fold enhancement of sweetness perception as compared to control sweetener solution ([2]; 8% sucrose, pH 7) [X] | DA Panel Average Sweetness Intensity Score (on 15 cm scale) [2, 3] | Perceived inherent sweetness compared to solubilizing agent alone [2] | Compound effects beyond the additive effect of inherent sweetness ([2]; pH 3) | Perceived sweetness vs control sweetener solutions (FIG. 2) ([2]; pH 3) | Compound effects beyond the additive effect of inherent sweetness ([2]; pH 7) | Perceived sweetness vs control sweetener solutions (FIG. 1) ([2]; pH 7) | DA Panel Average Sweetness Intensity Score (on 15 cm scale) [2, 4] | Perceived sweetness compared to solubilizing agent alone (inherent sweetness) [2] |
| --- | --- | --- | --- | --- | --- | --- | --- | --- | --- | --- | --- | --- | --- | --- | --- | --- | --- | --- |
| COc1ccc(C2CC(=O)c3c(O)cccc3O2)cc1O (single isomer, unassigned) [Compound 2, 5-hydroxy-2-(3-hydroxy-4-methoxyphenyl)chroman-4-one] | 0.5%-1% sucrose | 1 | 6.93 | 1.38 | 7.08 | 1.62 | 9.21 | 1.28 | 10.15 | 1.35 | 1.27 | do not show further significant increase in perceived inherent sweetness | super-additive effects | significant increase in perceived sweetness | super-additive effects | significant increase in perceived sweetness | 1.76 | further increase in perceived sweetness |
| COc1ccc(C2CC(=O)c3c(O)cccc3O2)cc1O (single isomer, unassigned) [Compound 3, 5-hydroxy-2-(3-hydroxy-4-methoxyphenyl)chroman-4-one] | 0.5%-1% sucrose | 1 | 7.09 | 1.41 | 7.08 | 1.62 | 9.23 | 1.28 | 10.22 | 1.36 | 1.58 | do not show further significant increase in perceived inherent sweetness | super-additive effects | significant increase in perceived sweetness | super-additive effects | significant increase in perceived sweetness | 1.58 | further increase in perceived sweetness |
